Measured values as given in publication PMC3914206.

What was measured:
panel of 442 kinases [1] = target: T1, panel of 442 kinases (Homo sapiens, UniProt P04626); format: binding; details: Compound Concentration 10 µM
T1 construct: purchased KINOMEscan
Text: (§1) We assessed the selectivity of members of this scaffold using the KINOMEscan methodology across a near comprehensive panel of 442 kinases [[18,27]].

panel of 442 kinases [2] = target: T2, panel of 442 kinases (Homo sapiens, UniProt O14976); format: binding; details: Compound Concentration 10 µM
T2 construct: purchased KINOMEscan
T2 sequence (O14976 1-1311): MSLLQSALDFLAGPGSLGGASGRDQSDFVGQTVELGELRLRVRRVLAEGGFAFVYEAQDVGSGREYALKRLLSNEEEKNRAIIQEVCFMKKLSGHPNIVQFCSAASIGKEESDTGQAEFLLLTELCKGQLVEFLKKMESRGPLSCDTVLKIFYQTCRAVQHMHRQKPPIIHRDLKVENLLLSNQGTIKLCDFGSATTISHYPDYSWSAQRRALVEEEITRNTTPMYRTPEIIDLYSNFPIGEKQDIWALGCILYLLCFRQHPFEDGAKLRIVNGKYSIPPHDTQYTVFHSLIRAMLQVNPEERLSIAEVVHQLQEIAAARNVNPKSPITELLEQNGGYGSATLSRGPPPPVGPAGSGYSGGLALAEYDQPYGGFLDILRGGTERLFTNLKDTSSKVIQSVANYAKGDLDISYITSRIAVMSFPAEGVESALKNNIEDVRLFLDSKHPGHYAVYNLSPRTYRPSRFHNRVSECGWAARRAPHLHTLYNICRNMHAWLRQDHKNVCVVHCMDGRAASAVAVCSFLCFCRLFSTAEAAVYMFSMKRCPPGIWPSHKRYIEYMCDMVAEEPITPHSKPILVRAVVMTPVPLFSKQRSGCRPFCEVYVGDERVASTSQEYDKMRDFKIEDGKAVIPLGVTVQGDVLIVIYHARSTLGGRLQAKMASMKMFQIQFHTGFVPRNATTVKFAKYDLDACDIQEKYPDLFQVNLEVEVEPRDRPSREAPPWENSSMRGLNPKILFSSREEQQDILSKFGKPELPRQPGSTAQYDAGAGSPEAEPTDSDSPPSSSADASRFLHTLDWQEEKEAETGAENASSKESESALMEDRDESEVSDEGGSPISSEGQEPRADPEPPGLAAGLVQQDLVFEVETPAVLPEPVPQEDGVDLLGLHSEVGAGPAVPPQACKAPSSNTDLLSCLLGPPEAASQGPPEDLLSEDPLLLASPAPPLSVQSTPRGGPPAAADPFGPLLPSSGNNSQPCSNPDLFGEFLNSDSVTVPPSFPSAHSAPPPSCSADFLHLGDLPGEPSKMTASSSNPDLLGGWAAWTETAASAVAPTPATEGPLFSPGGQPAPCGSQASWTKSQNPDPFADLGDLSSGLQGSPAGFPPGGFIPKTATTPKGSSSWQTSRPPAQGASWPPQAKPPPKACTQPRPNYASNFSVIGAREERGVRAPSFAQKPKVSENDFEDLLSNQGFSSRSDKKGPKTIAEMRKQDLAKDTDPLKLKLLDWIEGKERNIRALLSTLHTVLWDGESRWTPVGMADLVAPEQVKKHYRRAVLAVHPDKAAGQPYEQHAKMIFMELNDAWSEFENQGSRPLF
Text: as §1

T1 sequence (P04626 23-1255): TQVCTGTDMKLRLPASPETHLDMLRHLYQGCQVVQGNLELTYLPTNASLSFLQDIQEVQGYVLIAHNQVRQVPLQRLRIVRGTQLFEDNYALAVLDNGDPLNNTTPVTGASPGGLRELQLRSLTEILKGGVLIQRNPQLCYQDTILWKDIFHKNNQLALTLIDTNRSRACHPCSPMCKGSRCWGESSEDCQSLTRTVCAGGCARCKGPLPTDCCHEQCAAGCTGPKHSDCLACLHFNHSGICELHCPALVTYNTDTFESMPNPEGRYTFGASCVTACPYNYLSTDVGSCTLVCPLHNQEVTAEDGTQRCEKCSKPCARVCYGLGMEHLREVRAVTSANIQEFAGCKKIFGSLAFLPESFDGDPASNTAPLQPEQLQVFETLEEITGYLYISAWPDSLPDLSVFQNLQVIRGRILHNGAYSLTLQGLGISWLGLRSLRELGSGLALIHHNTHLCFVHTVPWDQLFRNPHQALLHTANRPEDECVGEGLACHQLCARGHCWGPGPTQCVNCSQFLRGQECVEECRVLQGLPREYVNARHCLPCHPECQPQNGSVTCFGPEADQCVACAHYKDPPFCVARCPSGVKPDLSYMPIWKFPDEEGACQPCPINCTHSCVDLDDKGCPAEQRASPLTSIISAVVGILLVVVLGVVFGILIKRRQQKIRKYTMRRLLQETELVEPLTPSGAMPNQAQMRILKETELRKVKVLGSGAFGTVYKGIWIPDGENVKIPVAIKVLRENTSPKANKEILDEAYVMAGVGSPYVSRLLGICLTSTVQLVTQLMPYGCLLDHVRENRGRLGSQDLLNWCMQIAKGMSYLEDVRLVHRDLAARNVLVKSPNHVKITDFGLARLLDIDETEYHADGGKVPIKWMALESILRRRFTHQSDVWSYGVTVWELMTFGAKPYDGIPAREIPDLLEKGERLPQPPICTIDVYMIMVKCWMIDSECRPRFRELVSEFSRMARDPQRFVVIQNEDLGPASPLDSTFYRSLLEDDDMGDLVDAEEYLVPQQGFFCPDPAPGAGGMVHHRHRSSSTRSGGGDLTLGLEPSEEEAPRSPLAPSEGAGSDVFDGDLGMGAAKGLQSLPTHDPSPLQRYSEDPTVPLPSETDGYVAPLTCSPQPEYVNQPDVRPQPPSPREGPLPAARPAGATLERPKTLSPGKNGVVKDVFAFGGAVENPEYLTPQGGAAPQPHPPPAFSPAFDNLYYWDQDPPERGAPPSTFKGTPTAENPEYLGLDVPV

## COc1cc(C(=O)N2CCC(N3CCN(C)CC3)CC2)ccc1Nc1ncc2c(n1)N(C1CCCC1)c1ccccc1C(=O)N2C [Compound 25, 11-cyclopentyl-2-((2-methoxy-4-(4-(4-methylpiperazin-1-yl)piperidine-1-carbonyl)phenyl)amino)-5-methyl-5H-benzo[e]pyrimido[5,4-b][1,4]diazepin-6(11H)-one]
Panel of 442 kinases [1]
  KINOMEscan: ERBB2: 100
Panel of 442 kinases [2]
  KINOMEscan: GAK: 82

## COc1cc(C(=O)N2CCC(N3CCN(C)CC3)CC2)ccc1Nc1ncc2c(n1)N1CCc3cccc(c31)C(=O)N2C [Compound 24]
Panel of 442 kinases [2]
  KINOMEscan: GAK: 19

## COc1cc(C(=O)N2CCC(N3CCN(C)CC3)CC2)ccc1Nc1ncc2c(n1)N(C)c1ccccc1C(=O)N2C [15 (LRRK2-IN-1)]
Panel of 442 kinases [1]
  KINOMEscan: ERBB2: 100
Panel of 442 kinases [2]
  KINOMEscan: GAK: 16

## CCOc1cc(C(=O)N2CCC(N3CCN(C)CC3)CC2)ccc1Nc1ncc2c(n1)N(C1CCCC1)c1ccccc1C(=O)N2C [Compound 26]
Panel of 442 kinases [1]
  KINOMEscan: ERBB2: 100
Panel of 442 kinases [2]
  KINOMEscan: GAK: 100
